Activity calls are given as the source filed them. The rule behind the calls is not given here.

Data set [1] deals with T1, Peroxiredoxin-1 (Homo sapiens) (UniProt Q06830).
T1 sequence (whole entry): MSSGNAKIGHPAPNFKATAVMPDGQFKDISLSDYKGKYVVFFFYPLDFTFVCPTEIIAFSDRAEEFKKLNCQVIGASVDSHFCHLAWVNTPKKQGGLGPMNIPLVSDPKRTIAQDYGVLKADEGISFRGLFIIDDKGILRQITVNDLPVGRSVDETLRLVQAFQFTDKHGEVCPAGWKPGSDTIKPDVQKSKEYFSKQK
As to the kind of experiment: Binding affinity to PRDX1 in human MDA-MB-453 cells measured after 6 hrs by pull-down assay. Particulars: dose <= 20.0 µM, DDE = dose-dependent effect. The format is cell-based.

A short description of data set [2]: GSH reactivity in pH 7.4 buffer assessed as GSH adduct formation at 1 mM by HPLC analysis. The format is physicochemical. The note with it: pH 7.4, 1000 µM.
The nature of data set [3]: GSH reactivity in pH 7.4 buffer assessed as GSH adduct formation by measuring half life at 50 uM by near-UV absorbance spectra analysis. The format is physicochemical. Particulars: pH 7.4, 50 µM.
For data set [4], the system named is DOHH-2. As to the kind of experiment: Induction of apoptosis in human DOHH-2 cells assessed as increase in cleaved PARP expression at 8 uM measured after 4 to 24 hrs by Western blot analysis. In kind it is functional, cell-based. The note with it: time 4-24 hrs. (Immunoblotting shows a protein as a band on a membrane.)
The subject of data set [5] is DOHH-2. As to the kind of experiment: Induction of autophagy in human DOHH-2 cells assessed as change in transformation of LC3B1 to LC3B2 expression at 0.5 to 8 uM measured after 24 hrs by Western blot analysis. The format is functional, cell-based. Particulars: dose 0.5-8 µM.
Data set [6] addresses Coronin-1A (Homo sapiens) (UniProt P31146). As to the kind of experiment: Binding affinity to coronin-1A in human DOHH-2 cells measured after 6 hrs by pull-down assay. The format is cell-based. Particulars: DDE = dose-dependent effect.
In data set [7] the target is T2, Plastin-2 (Homo sapiens) (UniProt P13796).
T2 sequence (whole entry): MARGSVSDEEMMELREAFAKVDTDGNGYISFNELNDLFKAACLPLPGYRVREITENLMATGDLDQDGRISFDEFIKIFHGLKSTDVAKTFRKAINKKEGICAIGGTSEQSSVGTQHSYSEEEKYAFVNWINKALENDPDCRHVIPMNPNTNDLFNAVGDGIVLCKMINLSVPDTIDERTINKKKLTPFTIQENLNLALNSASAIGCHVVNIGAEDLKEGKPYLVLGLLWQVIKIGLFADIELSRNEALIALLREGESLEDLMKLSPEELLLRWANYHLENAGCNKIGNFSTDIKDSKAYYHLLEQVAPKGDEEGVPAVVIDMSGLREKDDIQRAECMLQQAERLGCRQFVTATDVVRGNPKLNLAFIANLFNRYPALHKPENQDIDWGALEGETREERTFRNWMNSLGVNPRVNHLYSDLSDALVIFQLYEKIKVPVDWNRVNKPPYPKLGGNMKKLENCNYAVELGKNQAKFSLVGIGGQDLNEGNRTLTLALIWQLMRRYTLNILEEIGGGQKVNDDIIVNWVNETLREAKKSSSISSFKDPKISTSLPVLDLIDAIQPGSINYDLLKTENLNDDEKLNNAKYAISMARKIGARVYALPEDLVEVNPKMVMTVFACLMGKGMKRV
As to the kind of experiment: Binding affinity to plastin-2 in human DOHH-2 cells measured after 6 hrs by pull-down assay. The format is cell-based. Particulars: DDE = dose-dependent effect.

Data set [8] concerns the target T3, D-3-phosphoglycerate dehydrogenase (Homo sapiens) (UniProt O43175).
T3 sequence (whole entry): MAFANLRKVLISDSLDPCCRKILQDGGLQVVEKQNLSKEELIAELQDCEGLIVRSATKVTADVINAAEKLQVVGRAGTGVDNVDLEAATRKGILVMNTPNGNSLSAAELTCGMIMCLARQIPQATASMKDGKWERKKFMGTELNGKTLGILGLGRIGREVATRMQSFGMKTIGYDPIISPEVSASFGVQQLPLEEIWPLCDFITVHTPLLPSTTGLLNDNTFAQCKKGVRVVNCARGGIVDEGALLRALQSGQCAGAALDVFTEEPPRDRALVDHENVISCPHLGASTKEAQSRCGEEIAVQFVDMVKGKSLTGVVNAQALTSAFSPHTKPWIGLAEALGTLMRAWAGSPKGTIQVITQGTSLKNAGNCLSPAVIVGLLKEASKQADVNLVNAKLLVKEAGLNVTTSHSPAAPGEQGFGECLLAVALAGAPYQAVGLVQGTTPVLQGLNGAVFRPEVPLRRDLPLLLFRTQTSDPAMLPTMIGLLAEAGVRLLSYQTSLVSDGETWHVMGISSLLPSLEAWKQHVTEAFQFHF
As to the kind of experiment: Binding affinity to D-3-phosphoglycerate dehydrogenase in human DOHH-2 cells measured after 6 hrs by pull-down assay. The format is cell-based. Particulars: DDE = dose-dependent effect.

The target of data set [9] is T4, Thioredoxin-dependent peroxide reductase, mitochondrial (Homo sapiens) (UniProt P30048).
T4 sequence (whole entry): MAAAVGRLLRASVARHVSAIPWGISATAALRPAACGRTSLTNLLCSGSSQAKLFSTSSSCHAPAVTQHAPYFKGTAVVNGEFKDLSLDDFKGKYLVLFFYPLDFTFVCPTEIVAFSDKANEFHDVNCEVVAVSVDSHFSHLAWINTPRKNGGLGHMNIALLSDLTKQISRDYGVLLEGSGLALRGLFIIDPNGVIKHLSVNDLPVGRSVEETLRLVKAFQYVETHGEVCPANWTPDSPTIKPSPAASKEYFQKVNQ
As to the kind of experiment: Binding affinity to PRDX3 in human DOHH-2 cells measured after 6 hrs by pull-down assay. The format is cell-based. The note with it: DDE = dose-dependent effect.

Data set [10] addresses T5, Peroxiredoxin-6 (Homo sapiens) (UniProt P30041).
T5 sequence (whole entry): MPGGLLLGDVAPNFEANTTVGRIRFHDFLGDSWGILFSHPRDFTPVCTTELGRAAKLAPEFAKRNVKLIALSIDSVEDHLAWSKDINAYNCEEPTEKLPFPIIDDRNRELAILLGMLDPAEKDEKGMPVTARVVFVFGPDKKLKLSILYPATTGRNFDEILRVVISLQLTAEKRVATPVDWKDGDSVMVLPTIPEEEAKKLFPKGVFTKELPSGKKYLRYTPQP
As to the kind of experiment: Binding affinity to PRDX6 in human DOHH-2 cells measured after 6 hrs by pull-down assay. In kind it is cell-based. The note with it: DDE = dose-dependent effect.

Data set [11] concerns the target T6, Glutathione S-transferase omega-1 (Homo sapiens) (UniProt P78417).
T6 sequence (whole entry): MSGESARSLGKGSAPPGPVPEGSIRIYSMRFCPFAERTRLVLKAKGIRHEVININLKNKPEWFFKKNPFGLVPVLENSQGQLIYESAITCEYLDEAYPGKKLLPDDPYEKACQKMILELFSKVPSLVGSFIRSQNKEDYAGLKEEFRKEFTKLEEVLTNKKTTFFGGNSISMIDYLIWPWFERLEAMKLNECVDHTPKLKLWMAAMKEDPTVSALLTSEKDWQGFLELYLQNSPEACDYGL
As to the kind of experiment: Binding affinity to GSTO1 in human DOHH-2 cells by MS analysis. The format is cell-based.

Chain of Coronin-1A (Homo sapiens) (P31146 whole entry): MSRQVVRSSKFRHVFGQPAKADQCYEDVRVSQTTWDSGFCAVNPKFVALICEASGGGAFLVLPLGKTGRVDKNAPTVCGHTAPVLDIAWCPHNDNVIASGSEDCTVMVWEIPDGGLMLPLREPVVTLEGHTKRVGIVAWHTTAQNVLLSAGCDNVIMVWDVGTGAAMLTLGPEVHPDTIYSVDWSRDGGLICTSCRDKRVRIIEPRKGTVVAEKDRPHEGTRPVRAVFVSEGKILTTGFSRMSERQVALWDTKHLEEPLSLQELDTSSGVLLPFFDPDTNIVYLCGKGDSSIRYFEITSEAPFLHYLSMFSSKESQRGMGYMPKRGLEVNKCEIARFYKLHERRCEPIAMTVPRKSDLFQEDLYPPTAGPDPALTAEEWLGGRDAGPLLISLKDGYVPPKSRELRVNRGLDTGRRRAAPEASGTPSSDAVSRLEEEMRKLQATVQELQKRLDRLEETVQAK

Regarding `C#Cc1cccc(C#CS(N)(=O)=O)c1`, the Activity result is “Dde” in [1]; “Active” in data set [2]; “Dde” in data set [6]; “Dde” in data set [7]; “Dde” in [8]; “Dde” in [9]. Besides, in data set [10], the Activity entry was “Dde”. For the same compound, the t1/2 in [3] is reported as 3.91 min. For the same compound, the outcome in data set [4], in data set [5] and in data set [11] was Active.

For the origin of these results see ChEMBL document CHEMBL5143564, “PES derivative PESA is a potent tool to globally profile cellular targets of PES” (Bioorg Med Chem Lett, 2022).
